Experimental data published in paper PMC9363195, “Preclinical Pharmacokinetics, Biodistribution, and Acute Toxicity Evaluation of Caerin 1.9 Peptide in Sprague Dawley Rats” (Evidence-based Complementary and Alternative Medicine : eCAM, 2022).
Where two headings read alike, the source gives them in different places. Peptide text beside a SMILES is read from it.

Test: Pharmacokinetics of single subcutaneous injection of F3 (1.0 mg/kg)
Format: in vivo, Sprague Dawley rats
Conditions: single s.c. 1.0 mg/kg, plasma, LC-MS/MS; for AUC(0-inf) / AUC(0-t) / Cmax / Tmax / half-life / CL/F / MRT: Sprague-Dawley, rat, sc; for CL/F: read-out: Cl_F_obs (clearance rate) (converted); for MRT: read-out: MRTInf_obs (mean residence time)
Experimental: A single subcutaneous injection of 1.0 mg/kg F3 was given to a total of 12 SD rats (6 females, 6 males). Before and after F3 administration, whole blood samples were collected at predetermined time intervals (0, 0.5, 1, 2, 4, 6, 8, 24, 48, 72, 96, 144, and 192 hr). At each time point, at least 0.5 ml blood samples were taken alternatively from 3M/3F rats.
The concentration of F3 in rat plasma was determined by liquid chromatography-tandem mass spectrometry, using the method established by Kanglong Huacheng Co., Ltd. The analyte was assayed by liquid chromatography coupled with the tandem mass spectrometry (LC-MS/MS) method. The LC-MS/MS system consisted of a Shimadzu HPLC system (Kyoto, Japan) and an LCMS-8060 instrument (serial no. 011105500332 AE). The following were the LC conditions: column, HALO ES-C18 2.7 µ C18 160A (50 × 2.1 mm); gradient elution at 0.5 mL/min with 5% acetonitrile in water containing 0.1% formic acid or 95% acetonitrile in water containing 0.1% formic acid; and injection volume of 10 µL. A multiple reaction monitoring (MRM) method was selected for quantitative analysis. For analyte and internal standard, the optimum transitions were 519.50 > 129.15 (five charges) and 649.15 > 120.10 (four charges), 393.20 > 373.25, and 237.15 > 194.15, respectively. The instrumental parameters were set as follows: nebulizing gas flow was 3 L/min; heating gas flow was 10 L/min; interface temperature was 300°C; DL temperature was 250°C; and heat block temperature was 400°C.
PK parameters were estimated by a noncompartmental model with the calculation model of “Linear Trapezoidal Linear Interpolation” using WinNonlin (Phoenix TM, version 8.1). If the plasma F3 was detected, the following pharmacokinetic parameters were measured and calculated: Cmax (maximum blood concentration), Tmax (peak time), T1/2 (elimination half-life), AUC (area under plasma concentration-time curve), Vz_F_obs (apparent distribution volume), Cl_F_obs (clearance rate), and MRTInf_obs (mean residence time).

CC[C@H](C)[C@H](NC(=O)[C@H](CO)NC(=O)CNC(=O)[C@H](CC(C)C)NC(=O)[C@@H](NC(=O)CNC(=O)[C@H](Cc1ccccc1)NC(=O)[C@H](CC(C)C)NC(=O)CN)C(C)C)C(=O)N[C@@H](C)C(=O)N[C@@H](CCCCN)C(=O)N[C@@H](Cc1c[nH]cn1)C(=O)N[C@H](C(=O)N[C@@H](CC(C)C)C(=O)N1CCC[C@H]1C(=O)N[C@@H](Cc1c[nH]cn1)C(=O)N[C@H](C(=O)N[C@H](C(=O)N1CCC[C@H]1C(=O)N[C@H](C(=O)N[C@H](C(=O)N[C@@H](C)C(=O)N[C@@H](CCC(=O)O)C(=O)N[C@@H](CCCCN)C(=O)N[C@@H](CC(C)C)C(N)=O)[C@@H](C)CC)C(C)C)C(C)C)C(C)C)C(C)C [F3, Caerin 1.9] (H-GLFGVLGSIAKHVLPHVVPVIAEKL-NH2) showed an AUC(0-inf) (female SD rats) of 222 ng·h/mL, an AUC(0-t) (female SD rats) of 216 ng·h/mL and a Cmax (female SD rats) of 110 ng/mL. For the same compound, the Tmax (female SD rats) was 0.5 h, the half-life (female SD rats) was 0.677 h and the CL/F (female SD rats) was 75.1 mL/min/kg. For the same compound, the MRT (female SD rats) was 1.42 h, the AUC(0-inf) (male SD rats) was 686 ng·h/mL and the AUC(0-t) (male SD rats) was 661 ng·h/mL. The Cmax (male SD rats) was 256 ng/mL, the Tmax (male SD rats) was 1 h and the half-life (male SD rats) was 1.16 h. It also gave a CL/F (male SD rats) of 24.3 mL/min/kg, an MRT (male SD rats) of 2.05 h and an AUC_%Extrap_obs (female SD rats) of 2.88%. For the same compound, the T max (female SD rats) was 0.5 h and the T max (male SD rats) was 1 h.
